Reference: patent US10918687B2, “Kava derived therapeutic compounds and methods of use thereof” (KUALITY HERBCEUTICS LLC, priority 2013, dated 2021)
Where “and” joins values, the source holds several entries; their conditions need not be identical. Equal entries are not always repeated.

Columns and labels:
[1] = A/J mouse safety upon 17-week continuous exposure of (+)-DHM; type: in vivo, A/J mice; conditions: for adverse effects: 0.5 mg/g of diet (at least 10x minimum effective dose)
Procedure: After one-week acclimation, A/J mice were weighed and randomized into two groups (five mice in the control group and ten mice in (+)-DHM treatment group). Mice in the control group were maintained on the AIN-93 G diet for three weeks and then switched to the AIN-93 M diet until the end of Week 17. Mice in (+)-DHM treatment group were maintained on the same diet as the control group with supplementation of (+)-DHM at a dose of 0.5 mg/g of diet. Food was replenished twice weekly. Food intake was monitored twice a week and mouse bodyweight was monitored once a week. At the end of Week 8, serum samples from each mouse were prepared from blood collected via a facial vein and analyzed for a panel of clinical chemistry analytes. At the end of Week 17, mice were euthanized by CO2 overdosing. Blood was collected with one portion analyzed for hematology and the other portion processed for serum and analyzed for a full panel of clinical chemistry analytes. Individual animal body weights and major organ weights (lung, liver, heart, spleen and kidney) were recorded. Lung, liver, heart, spleen, kidney and pancreas were fixed in 10% neutral-buffered formalin solution.

[2] = system: NNK-induced lung tumorigenesis; assay: NNK-induced lung adenoma formation in A/J mice; type: in vivo; conditions: for reduction of adenoma multiplicity / reduction of adenoma incidence / adenoma multiplicity: Example 4, Day 119; for adenoma multiplicity: NNK control 13.9±6.9; for minimum effective dose: dietary dose against NNK-induced lung adenoma formation
Procedure: Female A/J mice, 5-6 weeks of age from the Jackson Laboratory (Bar Harbor, Me.), were handled according to animal welfare protocols approved by IACUC at the University of Minnesota. […] After one-week acclimation, mice were weighed, randomized into different groups and switched to AIN-93G-powdered diet, defined as Day 1. The number of mice in each group was specified in the Result Section. On Day 7 and Day 14, mice in the negative control groups received 0.1 mL physiological saline solution while mice in the other groups received NNK (100 and 67 mg/kg respectively in 0.1 mL of physiological saline solution) via i.p. injection. At the end of Day 21, mice were switched to AIN-93M-powdered diet until the end of the study. Diet consumption was measured twice weekly and bodyweight was monitored weekly. All mice were euthanized with an overdose of carbon dioxide. The lungs were collected and tumors on the surface of the lung were counted.
Data on lung adenoma multiplicity were reported as mean±SD (n=5-40). […] For Experiment 2, unpaired t-test was used for comparison between NNK control and kava treatment groups. Two-sided p-value≤0.05 was considered statistically significant. Data on DNA adducts were reported as mean±SD (n=3). For the time-course study, unpaired […] was used for comparisons between NNK control and kava treatment groups. Two-sided p-value≤0.05 was considered statistically significant: *p<0.05, **p<0.01, and ***p<0.001. For the 24-h time point study, one-way ANOVA was used to compare means.
After one-week acclimation, mice were weighed, randomized into eight groups and switched to the AIN-93 G diet on a date defined as Day 1. The number of mice in each group is specified in the Results Section (FIG. 36). Mice were fed diets supplemented with different compounds at the dose specified in the Results Section during Day 1-Day 14. On Day 7 and Day 14, mice in the negative control group received 0.1 mL of saline solution while mice in the other groups received NNK (100 and 67 mg/kg, respectively, in 0.1 mL of saline solution) via i.p. injection. At the end of Day 21, mice were switched to the AIN-93 M diet until the end of the study. The diet was replenished twice weekly. The diet consumption was measured twice weekly and the bodyweight was monitored weekly. This study was terminated at the end of Day 119. All mice were euthanized with CO2 overdosing.

[3] = 0.5 mg/g of diet, Week 17, data not shown

For `COC1=CC(=O)O[C@@H](CCc2ccc3c(c2)OCO3)C1` [(+)-DHM, (+)-dihydromethysticin], the adverse effects ([1]; 17 weeks) was “did not present with any adverse effects”, the “food intake vs control” value ([1]; 0.5 mg/g of diet, 17 weeks) was “similar” and the “weekly bodyweight vs control” value ([1]; 0.5 mg/g of diet, 17 weeks) was “none of the differences were statistically significant”. The “full-panel hematology vs control” value ([1]; 0.5 mg/g of diet, Week 17) was “None of these parameters were significantly different”, the “histopathological examination of liver, lung, heart, kidney, spleen and pancreas vs control” value [1, 3] was “no significant differences” and the “serum osmolality and anion gap vs control” value [1, 3] was “no differences”. For the same compound, the “final bodyweight and relative weights of five organs vs control” value ([1]; 0.5 mg/g of diet, Week 17, except for the lung tissues) was “not significantly different”, the “relative lung weight vs control” value ([1]; 0.5 mg/g of diet, Week 17, excluding one control mouse with lung hemorrhage (p=0.10)) was “no significant differences” and the “serum clinical chemistry (ALP, ALT, AST, BUN, albumin, total bilirubin, CK, glucose, cholesterol, amylase) vs control” value ([1]; 0.5 mg/g of diet, end of Week 8) was “No significant differences”. For the same compound, the “serum clinical chemistry vs control” value ([1]; 0.5 mg/g of diet, end of Week 17) was “no significant differences”, the “reduction of adenoma multiplicity” value ([2]; 0.05 mg/g of diet (50 ppm) Day 1-Day 14) was 97% and 97.1% and the “reduction of adenoma incidence” value ([2]; 0.05 mg/g of diet Day 1-Day 14) was 40%. The adenoma multiplicity ([2]; 0.05 mg/g of diet Day 1-Day 14) was 0.6±0.5 lung adenoma/mouse, the “reduction of adenoma incidence” value ([2]; 0.5 mg/g of diet Day 1-Day 14) was 40% and the “reduction of adenoma multiplicity” value ([2]; 0.5 mg/g of diet Day 1-Day 14) was 97.1%. The adenoma multiplicity ([2]; 0.5 mg/g of diet Day 1-Day 14) was 0.6±0.5 lung adenoma/mouse and the minimum effective dose [2] was “lower than 0.05 mg/g”.

With `COC1=CC(=O)O[C@@H](CCc2ccc3c(c2)OCO3)C1` [DHM, dihydromethysticin] the adverse effects ([1]; 17 weeks) was “no adverse effects” and the minimum effective dose [2] was “lower than 0.05 mg/g”.
